Test: xn = mol fraction of the nth substance listed

CCNc1ccccc1 + COC(C)(C)C
viscosity [mPa·s], 101 kPa
Conditions	293.15 K	298.15 K	303.15 K	308.15 K	313.15 K	318.15 K
x1 = 0.0583	0.428	0.412	0.395	0.374	0.351	0.325
x1 = 0.1047	0.465	0.445	0.425	0.401	0.376	0.348
x1 = 0.1493	0.503	0.479	0.455	0.429	0.402	0.371
x1 = 0.2021	0.552	0.523	0.495	0.465	0.434	0.4
x1 = 0.2544	0.605	0.57	0.537	0.503	0.469	0.432
x1 = 0.3064	0.663	0.621	0.583	0.544	0.506	–
x1 = 0.3508	0.718	0.668	0.625	0.582	0.54	–
x1 = 0.4031	0.787	0.728	0.678	0.63	0.584	–
x1 = 0.45	0.855	0.787	0.73	0.677	0.625	–
x1 = 0.5021	0.938	0.858	0.793	0.733	0.675	–
x1 = 0.5506	1.022	0.931	0.857	0.789	0.725	–
x1 = 0.6036	1.123	1.017	0.932	0.856	0.784	–
x1 = 0.6519	1.225	1.103	1.006	0.921	0.843	–
x1 = 0.701	1.337	1.197	1.089	0.993	0.907	–
x1 = 0.7521	1.465	1.304	1.181	1.074	0.979	–
x1 = 0.7985	1.592	1.409	1.271	1.153	1.049	–
x1 = 0.8501	1.745	1.536	1.38	1.247	1.132	–
x1 = 0.9006	1.909	1.67	1.493	1.346	1.218	–
x1 = 0.949	2.081	1.81	1.612	1.448	1.306	–

CC(=O)O + O
Conditions	viscosity [mPa·s]
293.15 K, 101 kPa, x1 = 0.0322	1.205
293.15 K, 101 kPa, x1 = 0.0731	1.433
293.15 K, 101 kPa, x1 = 0.1134	1.649
293.15 K, 101 kPa, x1 = 0.1667	1.892
293.15 K, 101 kPa, x1 = 0.2308	2.14
293.15 K, 101 kPa, x1 = 0.3102	2.385
293.15 K, 101 kPa, x1 = 0.4112	2.607
293.15 K, 101 kPa, x1 = 0.7286	2.39
293.15 K, 101.33 kPa, x1 = 0.03226	1.237
293.15 K, 101.33 kPa, x1 = 0.1139	1.696
293.15 K, 101.33 kPa, x1 = 0.2308	2.188
293.15 K, 101.33 kPa, x1 = 0.4118	2.686
293.15 K, 101.33 kPa, x1 = 0.5011	2.784
293.15 K, 101.33 kPa, x1 = 0.5454	2.781
293.15 K, 101.33 kPa, x2 = 0.0132	1.455
295.3 K, 101.33 kPa, x1 = 0.0321	1.135
298.15 K, 101 kPa, x1 = 0.0322	1.073
298.15 K, 101 kPa, x1 = 0.0731	1.27
298.15 K, 101 kPa, x1 = 0.1134	1.452
298.15 K, 101 kPa, x1 = 0.1667	1.644
298.15 K, 101 kPa, x1 = 0.2308	1.866
298.15 K, 101 kPa, x1 = 0.3102	2.086
298.15 K, 101 kPa, x1 = 0.4112	2.272
298.15 K, 101 kPa, x1 = 0.5449	2.353
298.15 K, 101 kPa, x1 = 0.7286	2.105
298.15 K, 101.33 kPa, x1 = 0.016	0.988
298.15 K, 101.33 kPa, x1 = 0.034	1.08
298.15 K, 101.33 kPa, x1 = 0.0684	1.232
298.15 K, 101.33 kPa, x1 = 0.07	1.254
298.15 K, 101.33 kPa, x1 = 0.1242	1.437
298.15 K, 101.33 kPa, x1 = 0.1648	1.633
298.15 K, 101.33 kPa, x1 = 0.2268	1.824
298.15 K, 101.33 kPa, x1 = 0.2289	1.867
298.15 K, 101.33 kPa, x1 = 0.2844	1.986
298.15 K, 101.33 kPa, x1 = 0.3218	2.091
298.15 K, 101.33 kPa, x1 = 0.3273	2.103
298.15 K, 101.33 kPa, x1 = 0.4187	2.248
298.15 K, 101.33 kPa, x1 = 0.436	2.333
298.15 K, 101.33 kPa, x1 = 0.4699	2.305
298.15 K, 101.33 kPa, x1 = 0.5177	2.374
298.15 K, 101.33 kPa, x1 = 0.5367	2.254
298.15 K, 101.33 kPa, x1 = 0.737	2.06
298.15 K, 101.33 kPa, x1 = 0.8576	1.689
298.15 K, 101.33 kPa, x1 = 0.9548	1.223
300.27 K, 101.33 kPa, x1 = 0.03428	1.014
303.15 K, 101 kPa, x1 = 0.0322	0.953
303.15 K, 101 kPa, x1 = 0.0731	1.12
303.15 K, 101 kPa, x1 = 0.1134	1.276
303.15 K, 101 kPa, x1 = 0.1667	1.452
303.15 K, 101 kPa, x1 = 0.2308	1.634
303.15 K, 101 kPa, x1 = 0.3102	1.816
303.15 K, 101 kPa, x1 = 0.4112	1.977
303.15 K, 101 kPa, x1 = 0.7286	1.847
303.55 K, 101.33 kPa, x1 = 0.0321	0.956
303.65 K, 101.33 kPa, x1 = 0.03428	0.939
308.15 K, 101 kPa, x1 = 0.0322	0.855
308.15 K, 101 kPa, x1 = 0.0731	1.003
308.15 K, 101 kPa, x1 = 0.1134	1.135
308.15 K, 101 kPa, x1 = 0.1667	1.289
308.15 K, 101 kPa, x1 = 0.2308	1.447
308.15 K, 101 kPa, x1 = 0.3102	1.612
308.15 K, 101 kPa, x1 = 0.4112	1.76
308.15 K, 101 kPa, x1 = 0.5449	1.813
308.15 K, 101 kPa, x1 = 0.7286	1.653
313.15 K, 100 kPa, x1 = 0.1001	0.997
313.15 K, 100 kPa, x1 = 0.2001	1.278
313.15 K, 100 kPa, x1 = 0.2998	1.467
313.15 K, 100 kPa, x1 = 0.3999	1.564
313.15 K, 100 kPa, x1 = 0.4996	1.585
313.15 K, 100 kPa, x1 = 0.5999	1.548
313.15 K, 100 kPa, x1 = 0.7002	1.461
313.15 K, 100 kPa, x1 = 0.7992	1.328
313.15 K, 100 kPa, x1 = 0.9001	1.14
313.15 K, 101 kPa, x1 = 0.0322	0.775
313.15 K, 101 kPa, x1 = 0.0731	0.903
313.15 K, 101 kPa, x1 = 0.1134	1.014
313.15 K, 101 kPa, x1 = 0.1667	1.158
313.15 K, 101 kPa, x1 = 0.2308	1.297
313.15 K, 101 kPa, x1 = 0.3102	1.426
313.15 K, 101 kPa, x1 = 0.4112	1.549
313.15 K, 101 kPa, x1 = 0.5449	1.614
313.15 K, 101 kPa, x1 = 0.7286	1.48
318.15 K, 101 kPa, x1 = 0.0322	0.709
318.15 K, 101 kPa, x1 = 0.0731	0.819
318.15 K, 101 kPa, x1 = 0.1134	0.922
318.15 K, 101 kPa, x1 = 0.1667	1.041
318.15 K, 101 kPa, x1 = 0.2308	1.165
318.15 K, 101 kPa, x1 = 0.3102	1.286
318.15 K, 101 kPa, x1 = 0.4112	1.397
318.15 K, 101 kPa, x1 = 0.5449	1.453
318.15 K, 101 kPa, x1 = 0.7286	1.34
323.15 K, 101 kPa, x1 = 0.0322	0.644
323.15 K, 101 kPa, x1 = 0.0731	0.742
323.15 K, 101 kPa, x1 = 0.1134	0.842
323.15 K, 101 kPa, x1 = 0.1667	0.943
323.15 K, 101 kPa, x1 = 0.2308	1.052
323.15 K, 101 kPa, x1 = 0.3102	1.166
323.15 K, 101 kPa, x1 = 0.4112	1.265
323.15 K, 101 kPa, x1 = 0.5449	1.316
323.15 K, 101 kPa, x1 = 0.7286	1.235

CCNc1ccccc1 + COc1ccccc1
viscosity [mPa·s], 101 kPa
Conditions	293.15 K	298.15 K	303.15 K	308.15 K	313.15 K	318.15 K	323.15 K
x1 = 0.0504	1.109	1.026	0.948	0.881	0.807	0.764	0.709
x1 = 0.1074	1.15	1.059	0.977	0.907	0.83	0.784	0.727
x1 = 0.1541	1.193	1.095	1.009	0.935	0.855	0.805	0.746
x1 = 0.2094	1.234	1.13	1.039	0.961	0.878	0.825	0.763
x1 = 0.2506	1.275	1.164	1.067	0.985	0.9	0.844	0.78
x1 = 0.3006	1.318	1.2	1.098	1.012	0.924	0.864	0.798
x1 = 0.3502	1.364	1.237	1.13	1.04	0.949	0.885	0.816
x1 = 0.4029	1.416	1.279	1.166	1.071	0.976	0.908	0.837
x1 = 0.4504	1.466	1.32	1.201	1.1	1.002	0.931	0.857
x1 = 0.499	1.519	1.363	1.24	1.133	1.031	0.955	0.878
x1 = 0.5504	1.58	1.412	1.281	1.169	1.063	0.981	0.902
x1 = 0.5911	1.64	1.461	1.322	1.204	1.094	1.007	0.924
x1 = 0.6505	1.711	1.517	1.371	1.245	1.131	1.038	0.951
x1 = 0.7027	1.783	1.578	1.421	1.288	1.167	1.069	0.978
x1 = 0.7493	1.853	1.635	1.47	1.331	1.203	1.098	1.004
x1 = 0.7972	1.936	1.699	1.523	1.375	1.242	1.131	1.032
x1 = 0.8509	2.024	1.766	1.578	1.421	1.283	1.164	1.06
x1 = 0.8913	2.103	1.831	1.632	1.466	1.322	1.196	1.087
x1 = 0.9501	2.191	1.9	1.688	1.514	1.363	1.23	1.116
